{"source": "patent US6166084A", "about": "“Compositions for the treatment of chronic wounds” (Johnson & Johnson Medical, Ltd., priority 1996, dated 2000)", "key": {"[1]": {"tested_on": "matrix metalloproteinases (MMP) from human wound fluid", "test": "MMP activity by gelatin SDS-PAGE zymography", "type": "biochemical", "details": "18 hours at 37° C., pH 7.8", "procedure": "The effect of NAC concentration on the activity of matrix metalloproteinases (MMP) from human wound fluid was assessed as follows.\nThe MMP activity was determined by gelatin SDS polyacrylamide gel electrophoresis (zymography) similar to that described by Heussen C. and Dowdle E. B. in Anal. Biochem. 102:196-202 (1980).\nThe experimental method was as follows:\n1. Gel preparation. The following components were mixed thoroughly:\n1. 5 ml 30% acrylamide/bis acrylamide (30 g acrylamide (Sigma A8887) plus 0.8 g N-N'-methylene bis-acrylamide (Sigma M7279) in 100 ml deionised water).\n2. 6.05 ml deionised water.\n3. 3.75 ml 1.5M Tris-HCl buffer.\n4. 150 μl 10% sodium dodecyl sulphate (SDS. Fisons S/5200/53).\n5. 1 ml warm (60° C.) gelatin (Sigma G9382) solution (7.5 mgml^-1).\n6. Immediately prior to casting the gel 50 μl 10% ammonium persulphate (APS, Fisons A/6160/53) and 12.5 μl tetramethylethylenediamine (TEMED, Sigma T9281).\n4.5 ml of the above mixture was added to the electrophoresis apparatus (Dual Mini Slab Kit, Atto Corporation), and covered with propanol saturated water. The gel was left gel to polymerise for at least 45 minutes. Then propanol solution was decanted and added to 1 ml of stacking gel solution (3.15 ml deionised water, 0.75 ml 30% acrylamide/bis-acrylamide, […] 1.5M Tris-HCl, 50 μl 10% SDS, 50 μl ammonium persulphate and 10 μl TEMED). Finally, a sample comb (8 lane comb) was inserted and the gel left to polymerise for at least 45 minutes.\n2. Sample preparation: A matrix metalloprotease (MMP) sample (10% solution of human acute wound fluid diluted in MMP proteolysis buffer (see below)) was diluted 1:1 with sample buffer (6.3 ml 0.5M Tris-HCl pH 6.8, 2.5 ml glycerol, 0.5 g SDS, 16.2 ml deionised water and bromophenol blue to colour).\n3. Sample loading and electrophoresis: 20 μl of the MMP samples were loaded into 8 lanes of the gel. The MMP's were separated for 1 hour at 20 mA/100V per gel until the dye front was almost at the bottom of the gel. The gel apparatus was then dismantled and the gel removed.\n4. Proteolysis: Washed gels for 30 minutes with 100 ml 2.5% Triton X-100. The procedure was repeated three times. The gels were cut into slices consisting of two lanes per slice. The gel slices were incubated in 20 ml proteolysis buffer (50 mM Tris-HCl pH 7.8, 50 mM CaCl2, 0.5M NaCl) containing the following treatments (each treatment was adjusted to pH 7.8) for 18 hours at 37° C.: (1) proteolysis buffer alone; (2) N-acetyl cysteine (44 mM); (3) N-acetyl cysteine (4.4 mM); (4) N-acetyl cysteine (0.44 mM).\n5. […]\nThe area of the individual zones of clearance on the gels, which are due to proteinase activity, were accurately measured by the Optilab (RTM) system. […]"}, "[2]": {"tested_on": "TNF-α induced CD 54, Intercellular Adhesion Molecule (ICAM-1) expression by Human Umbilical Vein Endothelial Cells (HUVEC)", "test": "TNF-α induced ICAM-1 expression by HUVEC (ELISA)", "type": "cell-based", "details": "TNF-α 0.5 ng/ml", "procedure": "The effects of NAC on the expression of the TNF-α induced CD 54, Intercellular Adhesion Molecule (ICAM-1) by Human Umbilical Vein Endothelial Cells (HUVEC) was assessed as follows.\nDL-Buthionine sulphoximine (BSO) was used to pretreat the cells. BSO is an inhibitor of glutathione synthesis and therefore reduces the glutathione content of the HUVEC rendering them more susceptible to oxidative stress and mimicking the conditions implicated in chronic wounds. NAC was used as a treatment to inhibit the expression of ICAM-1 by interfering with the TNF-α mediated intracellular signalling.\nHUVEC were seeded to wells of 96 well plates (5000 cells per well in 100 μl Endothelial Growth Medium (EGM)). The plates were allowed to grow until the cells reached 90% confluence. The medium was decanted from each plate and the following treatments (all volumes were 200 μl, performed in quadruplicate wells) where then applied to the HUVEC. […]\nICAM-1 expression, stimulated by inflammatory mediators such as tumour necrosis factor, can be detected on the surface of cells (endothelial cells, monocytes, T&B cells, keratinocytes, chondrocytes and epithelial cells) using ELISA techniques, as follows: […]\n8. Stop the reaction when colour develops by the addition of 1M H2 SO4 (100 μl per well) and read the absorbance at 450 nm using a Dynatech (RTM) plate reader."}}, "data": [{"smiles": "CC(=O)N[C@@H](CS)C(=O)O", "note": "[NAC, N-acetyl-3-mercaptoalanine]", "values": [{"measurement": "inhibition of MMP activity", "setting": "[1]; 0.44 mM NAC", "value": "approximately 10%"}, {"measurement": "inhibition of MMP activity", "setting": "[1]; 4.4 mM NAC solution", "value": "Approximately 70%"}, {"measurement": "inhibition of MMP activity", "setting": "[1]; 44 mM NAC solution", "value": "substantially complete"}, {"measurement": "inhibition of MMP activity (concentration dependence)", "setting": "[1]; NAC 0.44, 4.4, 44 mM, FIG. 2", "value": "clear concentration-dependent inhibition"}, {"measurement": "inhibition of ICAM-1 expression (concentration dependence)", "setting": "[2]; BSO (50 μM) pretreated HUVEC, NAC 1.1, 3.3, 10 mM, FIG. 1", "value": "concentration-dependent inhibition"}, {"measurement": "inhibition of ICAM-1 expression, all NAC concentrations", "setting": "[2]; NAC 10, 3.3 and 1.1 mM, P<0.05, Students T-test, BSO pretreated HUVEC", "value": "significant inhibition"}]}]}
